# Like-named read-outs stand apart in the source and are kept apart here.
# Legend:
# [1] = known competitor or probe guests, cited from earlier work
# [2] = Competition 1H-NMR to determine Keq of guests for CB[7]; type: binding
# Method: Determination of Keq by ^1H-NMR competition experiments. ^1H-NMR competition experiments were performed on a 500 MHz Bruker NMR spectrometer, according to the method described by Isaacs and colleagues. Briefly, NMR samples were prepared at three different ratios of a) a model compound for the PEG-appended guest, b) a competitive guest with a previously reported binding constant, and c) free unmodified CB[7]. Samples were prepared in D2O and allowed to reach equilibrium for times ranging from ˜30 minutes for the weakest guest to 4 days for the strongest guests. Equilibrium was verified by tracking the measured ^1H-NMR resonances until the spectra became constant. ^1H-NMR spectra were then acquired for each sample. […] The concentrations of the bound and free guest were obtained by this method, also yielding the concentration for the bound and the free form of the competing guest as well. In these equilibrium mixture, the Krel values were calculated using the relationships below. Krel values for 3 independent experiments with varying and known ratios of each of three components were averaged to obtain the final estimated Keq values.
# [formula] Krel can alternatively be expressed as follows:
# [formula] Rearranging yields the following expression for Keq: Krel,test=Krel,test/known×Keq,known
# [3] = on the basis of fluorescence
# [4] = NMR of bupivacaine bound to CB[7]; type: binding; details: preliminary, based on prior experience
# [5] = Solubility of bupivacaine alone and with CB[7]; type: physicochemical
# [6] = test system: MDA-MB-231 cells; assay: MTT in vitro cytotoxicity assay; type: cell-based; details: Homo sapiens, 72 hrs
# [7] = test system: MDA-MB-231 (luc+) tumor; assay: In vivo tumor model with hydrogel adjacent to the tumor; design: species or system mice; details: 3 mg/kg/day doxorubicin equivalent, three consecutive days
# [8] = mice, i.p., RTECS database; cited from earlier work
# [9] = Weight, survival and morbidity in the tumor studies; details: 3 mg/kg/day doxorubicin equivalent, three consecutive days
# [10] = rats; cited from earlier work
# [11] = cited from earlier work
molecule,measurement,setting,value
"NCCCCCCN [1,6-diaminohexane]","Keq for binding to CB[7], literature-reported",[1],8.9e+07 M⁻¹
OC12CC3CC(CC(C3)C1)C2 [1-adamantanol],"Keq for binding to CB[7], literature-reported",[1],2.3e+10 M⁻¹
same,"Keq for binding to CB[7], literature-reported",[1]; listed as SM2,~1e+10 M⁻¹
CN(C)c1ccc2cc3ccc(N(C)C)cc3nc2c1 [Acridine Orange],"Keq for binding to CB[7], literature-reported",[1],200000 M⁻¹
CN1/C(=C/C=C/C=C/C2=[N+](CCCCCC(=O)NCCC(=O)NC34CC5CC(CC(C5)C3)C4)c3ccc(S(=O)(=O)[O-])cc3C2(C)C)C(C)(C)c2cc(S(=O)(=O)O)ccc21 [Ad-Am-Cy5],Keq for binding to CB[7],"[2]; competition 1H-NMR in D2O, association constant",2.1e+10 M⁻¹
same,fold less accumulation at the hydrogel than the strong conjugate,[3],3 fold
CC(=O)NCCC(=O)NC12CC3CC(CC(C3)C1)C2 [Ada-Am-Ac],Krel,"[2]; model guest relative to competitive guest, average of three competition experiments",0.89
CCCCN1CCCCC1C(=O)Nc1c(C)cccc1C (stereo not shown) [bupivacaine],binding to CB[7],[4],~10^8 M^−1
same,water solubility,[5]; combined with CB[7],very good water solubility
same,solubility,[5]; on its own,sparingly soluble
COc1cccc2c1C(=O)c1c(O)c3c(c(O)c1C2=O)C[C@@](O)(C(=O)CO)C[C@@H]3O[C@H]1C[C@H](N)[C@H](O)[C@H](C)O1 [doxorubicin],IC50,[6],490 nM
same,tumor growth,[7],tumors continued to grow in spite of treatment
same,LD50,[8],11.2 mg/kg
same,"tolerability (weight, survival)",[9],weight loss and poor survival outcomes
NCc1ccc(CN)cc1 [p-xylylenediamine],"Keq for binding to CB[7], literature-reported",[1],1.78e+09 M⁻¹
same,"Keq for binding to CB[7], literature-reported",[1]; listed as SM^−1,~1e+09 M⁻¹
same,"Keq for binding to CB[7], literature-reported",[1]; listed as pxylylenediamine,1.84e+09 M⁻¹
cucurbit[7]uril [CB[7]],LD50,[10],> 250 mg/kg
same,degradation in vivo,[11],not appreciably degraded in vivo

# Source: patent US11806407B2, “Refillable drug delivery by affinity homing” (UNIVERSITY OF NOTRE DAME DU LAC, priority 2018, dated 2023)
